Measurements: patent US11713309B2, “Solid forms of Cerdulatinib” (Alexion Pharmaceuticals, Inc., priority 2018, dated 2023)
Where a name gives a salt, the structure may show the parent alone. Each block holds one compound with its values, some of them ahead of it.

How the values were obtained:
Format in all cases: physicochemical
[1] = Kinetic solubility in SGF; details: for Solubility (mg/mL) 1 h / Solubility (mg/mL) 2 h / Solubility (mg/mL) 4 h / Solubility (mg/mL) 24 h: SGF, 37° C.; for Solubility (mg/mL) 1 h: drug loading ~10 mg/mL as freebase; for pH 1 h / pH 2 h / pH 4 h / pH 24 h: supernatant, SGF (native pH 1.8)
Protocol: (§1) Kinetic solubility testing was conducted as follows: About 40-55 mg material was weighed into a 5-mL EP pipe. 4 mL of water/bio-relevant media (SGF, FaSSIF, or FeSSIF) was added into the corresponding sample pipe (drug loading: ˜10 mg/mL calculated as freebase). The pipes were capped tightly and the material was verified to be in contact with the media. The sample vials were placed on a roller and start rolling at 37° C. (rate: 25 r/min). Samples were taken at 1, 2, 4, 24 h. For each time point, 1.0 mL of suspension was transferred into a 2-mL centrifuge tube and the samples were centrifuged. The supernatant was filtered via 0.45 μm PTFE membrane and solubility and pH were measured. An XRPD test on residual solids was conducted.

[2] = Kinetic solubility in FeSSIF; details: for Solubility (mg/mL) 1 h / Solubility (mg/mL) 2 h / Solubility (mg/mL) 4 h / Solubility (mg/mL) 24 h: 37° C.; for Solubility (mg/mL) 1 h: drug loading ~10 mg/mL as freebase; for Final Form: XRPD of residual solids, 24 h (merged cell); for Solubility (mg/mL) 1 h / Final Form / pH 1 h: 1 h; for Solubility (mg/mL) 2 h / Final Form / pH 2 h: 2 h; for Solubility (mg/mL) 4 h / Final Form / pH 4 h: 4 h; for pH 1 h / pH 2 h / pH 4 h / pH 24 h: supernatant
Protocol: as §1

[3] = Kinetic solubility in FaSSIF; details: for Solubility (mg/mL) 1 h / Solubility (mg/mL) 2 h / Solubility (mg/mL) 4 h / Solubility (mg/mL) 24 h: FaSSIF, 37° C.; for Solubility (mg/mL) 1 h: drug loading ~10 mg/mL as freebase; for pH 1 h / pH 2 h / pH 4 h / pH 24 h: supernatant, FaSSIF (native pH 6.5)
Protocol: as §1

[4] = Kinetic solubility in water; details: 37° C.; for pH of supernatant: water (native pH 7.6); for Final Form of residual solids (XRPD) / Kinetic solubility: water
Protocol: as §1

[5] = Gravimetric vapor sorption (GVS) hygroscopicity; details: for Crystalline form by XRPD post GVS analysis: exposure to humidity 0 to about 90% RH, about 25° C.
Protocol: Sorption isotherms were obtained using a Hiden Isochema moisture sorption analyser (model IGAsorp), controlled by IGAsorp Systems Software v6.50.48. The sample was maintained at a constant temperature (25° C.) by the instrument controls. The humidity was controlled by mixing streams of dry and wet nitrogen, with a total flow of 250 mL·min^−1. The instrument was verified for relative humidity content by measuring three calibrated Rotronic salt solutions (10-50-88%). The weight change of the sample was monitored as a function of humidity by a microbalance (accuracy+/−0.005 mg). A defined amount of sample was placed in a tared mesh stainless steel basket under ambient conditions. A full experimental cycle consisted of two scans (sorption and desorption) at a constant temperature (25° C.) and 10% RH intervals over a 10-90% range (90 minutes for each humidity level).
The hygroscopicity of the esylate, mesylate, HCl, and sulfate salts/co-crystals of Compound I formed via the first scale up process was analyzed. All hygroscopicity experiments covered a wide range of humidity (0 to about 90% relative humidity) and were performed at about 25° C. to assess behavior.

[6] = Solubility of Compound I Form I in various solvents
[7] = 24 h, listed as Mesylate Type A
[8] = 1 h, listed as Isethionate Type A
[9] = 2 h, listed as Isethionate Type A
[10] = 4 h, listed as Isethionate Type A
[11] = 24 h, listed as Isethionate Type A

Structure (SMILES): CCS(=O)(=O)N1CCN(c2ccc(Nc3ncc(C(N)=O)c(NC4CC4)n3)cc2)CC1 [Compound I Form I, 4-(cyclopropylamino)-2-(4-(4-(ethylsulfonyl)piperazin-1-yl)phenylamino)pyrimidine-5-carboxamide]
- Solubility of Compound I Form I (Observations) ([6]; 25 mg/1 mL Acetone): <5 mg
- Solubility of Compound I Form I (Observations) ([6]; 25 mg/1 mL Acetonitrile): <5 mg
- Solubility of Compound I Form I (Observations) ([6]; 25 mg/1 mL DCM): about 10 mg
- Solubility of Compound I Form I (Observations) ([6]; 25 mg/1 mL EtOAc): <5 mg
- Solubility of Compound I Form I (Observations) ([6]; 25 mg/1 mL Heptane): <5 mg
- Solubility of Compound I Form I (Observations) ([6]; 25 mg/1 mL IPA): <5 mg
- Solubility of Compound I Form I (Observations) ([6]; 25 mg/1 mL MeOH): <5 mg
- Solubility of Compound I Form I (Observations) ([6]; 25 mg/1 mL TBME): <5 mg
- Solubility of Compound I Form I (Observations) ([6]; 25 mg/1 mL THF): <5 mg
- Solubility of Compound I Form I (Observations) ([6]; 25 mg/1 mL Toluene): about 10 mg

Structure (SMILES): CCS(=O)(=O)N1CCN(c2ccc(Nc3ncc(C(N)=O)c(NC4CC4)n3)cc2)CC1 [Compound I esylate Form I, 4-(cyclopropylamino)-2-(4-(4-(ethylsulfonyl)piperazin-1-yl)phenylamino)pyrimidine-5-carboxamide]
- GVS hygroscopicity / moisture uptake ([5]; between 0 and about 60% RH, 25° C.): not subject to moisture uptake
- GVS weight uptake ([5]; between about 60% to about 90% RH): RH; about 5 mg
- GVS mass lost relative to the input weight ([5]; dried to about 10% RH): about 4.6%
- Crystalline form by XRPD post GVS analysis [5]: loss of crystallinity
- Deliquescence in GVS ([5]; large water uptake about 60 to about 90% RH): deliquescence did not result
- GVS weight change (sudden increase in weight) ([5]; sorption above about 60% RH): ~35%

Structure (SMILES): CCS(=O)(=O)N1CCN(c2ccc(Nc3ncc(C(N)=O)c(NC4CC4)n3)cc2)CC1 [Compound I isethionate Type A, 4-(cyclopropylamino)-2-(4-(4-(ethylsulfonyl)piperazin-1-yl)phenylamino)pyrimidine-5-carboxamide]
- Solubility (mg/mL) 1 h ([1]; listed as Isethionate Type A): 0.077 mg/mL
- Solubility (mg/mL) 2 h ([1]; listed as Isethionate Type A): 0.081 mg/mL
- Solubility (mg/mL) 4 h ([1]; listed as Isethionate Type A): 0.073 mg/mL
- Solubility (mg/mL) 24 h ([1]; listed as Isethionate Type A): 0.069 mg/mL
- pH 1 h ([1]; listed as Isethionate Type A): 1.9
- pH 2 h ([1]; listed as Isethionate Type A): 1.9
- pH 4 h ([1]; listed as Isethionate Type A): 2.1
- pH 24 h ([1]; listed as Isethionate Type A): 2.0
- Solubility (mg/mL) 1 h ([2]; listed as Isethionate Type A): 0.0058 mg/mL
- Solubility (mg/mL) 2 h ([2]; listed as Isethionate Type A): 0.0053 mg/mL
- Solubility (mg/mL) 4 h ([2]; listed as Isethionate Type A): 0.0052 mg/mL
- Solubility (mg/mL) 24 h ([2]; listed as Isethionate Type A): 0.0054 mg/mL
- Final Form ([2]; listed as Isethionate Type A): Freebase Form II
- pH 1 h ([2]; listed as Isethionate Type A): 4.6
- pH 2 h ([2]; listed as Isethionate Type A): 4.7
- pH 4 h ([2]; listed as Isethionate Type A): 4.7
- pH 24 h ([2]; listed as Isethionate Type A): 4.6
- Solubility (mg/mL) 1 h ([3]; listed as Isethionate Type A): 0.020 mg/mL
- Solubility (mg/mL) 2 h ([3]; listed as Isethionate Type A): 0.026 mg/mL
- Solubility (mg/mL) 4 h ([3]; listed as Isethionate Type A): 0.018 mg/mL
- Solubility (mg/mL) 24 h ([3]; listed as Isethionate Type A): 0.015 mg/mL
- pH 1 h ([3]; listed as Isethionate Type A): 3.9
- pH 2 h ([3]; listed as Isethionate Type A): 3.9
- pH 4 h ([3]; listed as Isethionate Type A): 3.9
- pH 24 h ([3]; listed as Isethionate Type A): 3.9
- pH of supernatant [4, 8]: 2.1
- pH of supernatant [4, 9]: 2.0
- pH of supernatant [4, 10]: 2.1
- pH of supernatant [4, 11]: 2.1
- Final Form of residual solids (XRPD) ([4]; 1 h, 2 h, 4 h, 24 h, listed as Isethionate Type A): Freebase Form II
- Kinetic solubility [4, 8]: 1500 µg/mL
- Kinetic solubility [4, 9]: 1300 µg/mL
- Kinetic solubility [4, 10]: 1300 µg/mL
- Kinetic solubility [4, 11]: 1200 µg/mL

Continued, values first:

- Solubility (mg/mL) 1 h ([1]; listed as Mesylate Type A): 0.081 mg/mL
- Solubility (mg/mL) 2 h ([1]; listed as Mesylate Type A): 0.096 mg/mL
- Solubility (mg/mL) 4 h ([1]; listed as Mesylate Type A): 0.080 mg/mL
- Solubility (mg/mL) 24 h ([1]; listed as Mesylate Type A): 0.076 mg/mL
- pH 1 h ([1]; listed as Mesylate Type A): 1.9
- pH 2 h ([1]; listed as Mesylate Type A): 2.0
- pH 4 h ([1]; listed as Mesylate Type A): 2.0
- pH 24 h ([1]; listed as Mesylate Type A): 1.9
- Solubility (mg/mL) 1 h ([2]; listed as Mesylate Type A): 0.023 mg/mL
- Solubility (mg/mL) 2 h ([2]; listed as Mesylate Type A): 0.020 mg/mL
- Solubility (mg/mL) 4 h ([2]; listed as Mesylate Type A): 0.0084 mg/mL
- Solubility (mg/mL) 24 h ([2]; listed as Mesylate Type A): 0.0083 mg/mL
- Final Form ([2]; listed as Mesylate Type A): Freebase Form II
- pH 1 h ([2]; listed as Mesylate Type A): 4.7
- pH 2 h ([2]; listed as Mesylate Type A): 4.5
- pH 4 h ([2]; listed as Mesylate Type A): 4.6
- pH 24 h ([2]; listed as Mesylate Type A): 4.6
- Solubility (mg/mL) 1 h ([3]; listed as Mesylate Type A): 0.062 mg/mL
- Solubility (mg/mL) 2 h ([3]; listed as Mesylate Type A): 0.055 mg/mL
- Solubility (mg/mL) 4 h ([3]; listed as Mesylate Type A): 0.039 mg/mL
- Solubility (mg/mL) 24 h ([3]; listed as Mesylate Type A): 0.020 mg/mL
- pH 1 h ([3]; listed as Mesylate Type A): 4.1
- pH 2 h ([3]; listed as Mesylate Type A): 3.7
- pH 4 h ([3]; listed as Mesylate Type A): 3.6
- pH 24 h ([3]; listed as Mesylate Type A): 4.0
- pH of supernatant ([4]; 1 h, listed as Mesylate Type A): 1.9
- pH of supernatant ([4]; 2 h, listed as Mesylate Type A): 1.9
- pH of supernatant ([4]; 4 h, listed as Mesylate Type A): 2.2
- pH of supernatant [4, 7]: 2.0
- Final Form of residual solids (XRPD) ([4]; 1 h, 2 h, 4 h, 24 h, listed as Mesylate Type A): Freebase Form II
- Kinetic solubility ([4]; 1 h, listed as Mesylate Type A): 1400 µg/mL
- Kinetic solubility ([4]; 2 h, listed as Mesylate Type A): 1300 µg/mL
- Kinetic solubility ([4]; 4 h, listed as Mesylate Type A): 1300 µg/mL
- Kinetic solubility [4, 7]: 1300 µg/mL
Structure (SMILES): CCS(=O)(=O)N1CCN(c2ccc(Nc3ncc(C(N)=O)c(NC4CC4)n3)cc2)CC1 [Compound I mesylate Type A, 4-(cyclopropylamino)-2-(4-(4-(ethylsulfonyl)piperazin-1-yl)phenylamino)pyrimidine-5-carboxamide]

- GVS water absorbed ([5]; 25° C., first scale up material, listed as Comp. I Mesylate Form II): About 12 mg
- GVS total mass lost ([5]; desorption): about 2%
- Crystalline form by XRPD post GVS analysis [5]: does not result in a form change
- GVS total weight uptake from the starting point ([5]; sorption, increasing RH): ≤ 1.4%
Structure (SMILES): CCS(=O)(=O)N1CCN(c2ccc(Nc3ncc(C(N)=O)c(NC4CC4)n3)cc2)CC1 [Compound I mesylate Form II, 4-(cyclopropylamino)-2-(4-(4-(ethylsulfonyl)piperazin-1-yl)phenylamino)pyrimidine-5-carboxamide]
